Source: patent EP3981777A1, “ANTIVIRAL COMPOUNDS AND POLYMERS” (priority 2020, dated 2022)

Molecular target: T1, DC-SIGN (Homo sapiens, UniProt Q9NNX6)
T1 construct: host or cells: B-THP-1 (Raji B) cells, DC-SIGN+
T1 sequence (Q9NNX6 1-404): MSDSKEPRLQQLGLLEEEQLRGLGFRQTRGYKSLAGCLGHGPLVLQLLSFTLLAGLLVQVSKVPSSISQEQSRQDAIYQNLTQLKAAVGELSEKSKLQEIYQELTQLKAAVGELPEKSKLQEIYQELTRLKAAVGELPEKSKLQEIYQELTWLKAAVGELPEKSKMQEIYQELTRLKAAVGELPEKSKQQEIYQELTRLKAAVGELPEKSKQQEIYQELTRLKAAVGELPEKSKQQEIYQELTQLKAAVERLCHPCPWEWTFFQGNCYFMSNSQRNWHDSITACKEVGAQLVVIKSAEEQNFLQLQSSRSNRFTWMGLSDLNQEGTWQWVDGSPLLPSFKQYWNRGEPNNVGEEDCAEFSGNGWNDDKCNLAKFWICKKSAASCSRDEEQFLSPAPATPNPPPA
Assay: cell-based

Work on `CO[C@H]1O[C@H](CO)[C@@H](O)[C@H](O)[C@@H]1O` [MeMan, methyl α-D-mannoside] yielded an IC50 of 6.5 mM.
